Here are results for five molecules from ChEMBL document CHEMBL3526091, “Pharmacokinetics, metabolism, and excretion of the glycogen synthase kinase-3 inhibitor LY2090314 in rats, dogs, and humans: a case study in rapid clearance by extensive metabolism with low circulating metabolite exposure” (Drug Metab Dispos, 2013).

What all share (settings): in vivo
The nature of data set [1]: Drug recovery in bile duct-cannulated Sprague-Dawley rat assessed as radioactivity in bile during 0 to 12 hrs treated with 5 mg/kg, iv LY2090314 for 30 mins. It counts as ADME, organism-based. The arrangement: dose 5 mg/kg, dosed compound name [14C]LY2090314, route intravenous.
Data set [2] has as its system Plasma. Description: Drug recovery in beagle dog plasma assessed as radiochemical peak area treated with 5 mg/kg, iv LY2090314 for 30 mins after 0.5 hrs by radio analysis. On the set-up: dose 5 mg/kg, dosed compound name [14C]LY2090314, route intravenous. It counts as ADME, organism-based, Canis lupus familiaris.
For data set [3], the system named is Plasma. Description: Drug recovery in beagle dog plasma assessed as radiochemical peak area treated with 5 mg/kg, iv LY2090314 for 30 mins after 2 hrs by radio analysis. It counts as ADME, organism-based, Canis lupus familiaris. On the set-up: dose 5 mg/kg, dosed compound name [14C]LY2090314, route intravenous.
The nature of data set [4]: Drug recovery in bile duct-intact beagle dog assessed as radioactivity in feces during 0 to 48 hrs treated with 5 mg/kg, iv LY2090314 for 30 mins. On the set-up: dose 5 mg/kg, dosed compound name [14C]LY2090314, route intravenous. It counts as ADME, organism-based, Canis lupus familiaris.
Data set [5] can be described thus: Drug recovery in po dosed mouse feces. It counts as ADME, organism-based. On the set-up: dosed compound name Ruboxistaurin.
Data set [6] is described as follows: Drug recovery in po dosed rat feces. It counts as ADME, organism-based. On the set-up: dosed compound name Ruboxistaurin.
A short description of data set [7]: Drug recovery in po dosed dog feces. It counts as ADME, organism-based, Canis lupus familiaris. On the set-up: dosed compound name Ruboxistaurin.
Data set [8] is described as follows: Drug recovery in po dosed human feces. The arrangement: dosed compound name Ruboxistaurin. Type of data set: ADME, organism-based.
A short description of data set [9]: Drug recovery in po dosed mouse urine. Type of data set: ADME, organism-based. The arrangement: dosed compound name Ruboxistaurin.
Data set [10] is described as follows: Drug recovery in po dosed rat urine. Type of data set: ADME, organism-based. On the set-up: dosed compound name Ruboxistaurin.
The nature of data set [11]: Drug recovery in po dosed dog urine. Type of data set: ADME, organism-based, Canis lupus familiaris. The arrangement: dosed compound name Ruboxistaurin.
Data set [12] can be described thus: Drug recovery in po dosed human urine. It counts as ADME, organism-based. On the set-up: dosed compound name Ruboxistaurin.
Data set [13] can be described thus: Drug recovery in po dosed rat bile. Type of data set: ADME, organism-based. The arrangement: dosed compound name Ruboxistaurin.

In the case of `NC(=O)N1CCn2cc(C3=C(c4cnc5ccccn45)C(=O)NC3=O)c3cc(F)cc(c32)C1`, the Compound recovery is given as 4.15% in [1], 0.1% in [2] and 0% in data set [3].
On to `O=C(O)CCNC(=O)N1CCn2cc(C3=C(c4cnc5ccccn45)C(=O)NC3=O)c3cc(F)cc(c32)C1`, for which the Compound recovery in data set [1] is 0%.
Consider `O=C1NC(=O)C(c2c[n+](O[C@@H]3O[C@H](C(=O)O)[C@@H](O)[C@H](O)[C@H]3O)c3ccccn23)=C1c1cn2c3c(cc(F)cc13)CN(C(=O)N1CCCCC1)CC2`, for which the results for the Compound recovery in data set [4], in data set [2] and in data set [3] were 5.42%, 12.66% and 18.81%, respectively.
As for `O=C(CCNC(=O)N1CCn2cc(C3=C(c4cnc5ccccn45)C(=O)NC3=O)c3cc(F)cc(c32)C1)NCCS(=O)(=O)O`, in data set [1], the Compound recovery turned out to be 6.76%.
As to `CN(C)C[C@@H]1CCn2cc(c3ccccc32)C2=C(C(=O)NC2=O)c2cn(c3ccccc23)CCO1` [RUBOXISTAURIN], the Radiolabel recovery in data set [5] is recorded as 83%; in data set [6], 83%; in data set [7] it was 83%; in data set [8], 83%; in [9], “<= 4%”; in [10], “<= 4%”. For the same molecule, the Radiolabel recovery entry in [11] is listed as “<= 4%”; in [12], “<= 4%”; in [13] it was 59%.
